{"source": "patent US20040048195A1", "about": "“Heat-sensitive lithographic printing plate precursor” (AGFA-GEVAERT, priority 2002, published 2004)", "format_in_all_cases": "physicochemical", "key": {"[1]": {"experiment": "Solubility of the IR-dyes (supersaturated solution, filtration, spectrophotometric determination)", "settings": "for solubility: thermodynamic from solid", "experimental": "The solubility of the IR-dyes IR-1 to −5 and of a comparison dye Cl (commercially available from FEW Chemicals GmbH) was determined as follows:\nthe extinction coefficient of the dyes was measured in methanol with a HP8453 UV/VIS/NIR spectrophotometer;\na supersaturated solution of the dyes in a) 2-methoxyl-propanol (MOP) and b) water/NaOH (pH=9) was prepared; after filtration the concentration of dissolved dye was determined by dissolution with methanol using the previous determined extinction coefficient. [drawing 8]"}, "[2]": {"experiment": "Test of inhibiting capability of the dyes: dissolution time of unexposed novolac/dye coating in Agfa EP26 developer", "settings": "dye 35 mg/m^2 in 0.9 g/m^2 novolac, Agfa EP26 developer at 20° C., reference without dye 30 sec", "experimental": "A layer of novolac (Alnovol SPN452 from Clariant, a 40.5 wt. % solution in methoxypropanol) and the dyes specified in Table 2 were coated on the above support. After drying during 1 min at 130° C., the samples contained 0.9 g/m^2 of novolac. A series of unexposed samples is immersed in Agfa EP26 developer at 20° C., each sample during a different time period. After the immersion period, the sample was removed from the developer, immediately rinsed with water, dried and then the dissolution of the coating in the developer was measured by comparing the weight of the sample before and after the development. As soon as the coating is dissolved completely, no more weight loss is measured upon longer immersion time periods, i.e. a curve representing weight loss as a function of immersion time reaches a plateau from the moment of complete dissolution of the layer, which is referred to herein as “dissolution time”. When the dissolution time of the sample containing the IR dye is longer than the dissolution time of the sample without the IR dye, then the IR dye clearly acts as an inhibitor."}, "[3]": {"experiment": "Solubility of the IR-dyes (supersaturated solution, filtration, spectrophotometric determination)", "settings": "water/NaOH, pH 11.7, aqueous buffer, thermodynamic from solid, insoluble at pH = 9; NaOH was added until pH = 11.7; read-out: Solubility in H2O/NaOH"}}, "note": "Like-named read-outs stand apart in the source and are kept apart here."}
{"smiles": "CN1/C(=C/C=C2\\CCCC(/C=C/C3=[N+](C)c4ccc5ccccc5c4C3(C)C)=C2Cl)C(C)(C)c2c1ccc1ccccc21", "note": "[Comparison, reference compound]", "values": [{"measurement": "solubility", "setting": "[1]; 2-methoxyl-propanol (MOP), organic solvent or mixture, 2-methoxyl-propanol (MOP), read-out: Solubility in MOP", "result": 50.1, "unit": "mg/mL"}, {"measurement": "Dissolution time", "setting": "[2]", "result": 60, "unit": "s"}, {"measurement": "solubility", "setting": "[3]", "result": "< 0.002", "unit": "mg/mL"}]}
{"smiles": "CC1(C)C(/C=C/C2=C(Sc3ccccc3C(=O)O)C(=C/C=C3/N(CCCCS(=O)(=O)[O-])c4ccccc4C3(C)C)/CCC2)=[N+](CCCCS(=O)(=O)[O-])c2ccccc21.[K+]", "note": "[IR-dye 1]", "values": [{"measurement": "Solubility in MOP", "setting": "[1]; 2-methoxyl-propanol (MOP)", "result": 3.8, "unit": "mg/mL"}, {"measurement": "Solubility in H2O/NaOH at pH = 9", "setting": "[1]; water/NaOH, pH = 9", "result": 40.1, "unit": "g/l"}, {"measurement": "Dissolution time", "setting": "[2]; listed as IR-1", "result": 30, "unit": "s"}]}
{"smiles": "CC1(C)C(/C=C/C2=C(Sc3ccccc3C(=O)O)C(=C/C=C3/N(CCCCS(=O)(=O)[O-])c4ccccc4C3(C)C)/CCC2)=[N+](CCCCS(=O)(=O)[O-])c2ccccc21.[K+]", "note": "[IR-dye 2]", "values": [{"measurement": "Solubility in MOP", "setting": "[1]; 2-methoxyl-propanol (MOP)", "result": 0.42, "unit": "mg/mL"}, {"measurement": "Solubility in H2O/NaOH at pH = 9", "setting": "[1]; water/NaOH, pH = 9", "result": ">50", "unit": "g/l"}, {"measurement": "Dissolution time", "setting": "[2]; listed as IR-2", "result": 20, "unit": "s"}]}
{"smiles": "CC1(C)C(/C=C/C2=C(Sc3ccccc3C(=O)O)C(=C/C=C3/N(CCCCS(=O)(=O)[O-])c4ccccc4C3(C)C)/CCC2)=[N+](CCCCS(=O)(=O)[O-])c2ccccc21.[K+]", "note": "[IR-dye 3]", "values": [{"measurement": "Solubility in MOP", "setting": "[1]; 2-methoxyl-propanol (MOP)", "result": ">100", "unit": "mg/mL"}, {"measurement": "Solubility in H2O/NaOH at pH = 9", "setting": "[1]; water/NaOH, pH = 9", "result": ">50", "unit": "g/l"}, {"measurement": "Dissolution time", "setting": "[2]; listed as IR-3", "result": 30, "unit": "s"}]}
{"smiles": "CC1(C)C(/C=C/C2=C(Sc3ccccc3C(=O)O)C(=C/C=C3/N(CCCCS(=O)(=O)[O-])c4ccccc4C3(C)C)/CCC2)=[N+](CCCCS(=O)(=O)[O-])c2ccccc21.[K+]", "note": "[IR-dye 4]", "values": [{"measurement": "Solubility in MOP", "setting": "[1]; 2-methoxyl-propanol (MOP)", "result": 5.7, "unit": "mg/mL"}, {"measurement": "Solubility in H2O/NaOH at pH = 9", "setting": "[1]; water/NaOH, pH = 9", "result": ">50", "unit": "g/l"}, {"measurement": "Dissolution time", "setting": "[2]; listed as IR-4", "result": 20, "unit": "s"}]}
{"smiles": "CC1(C)C(/C=C/C2=C(Sc3ccccc3C(=O)O)C(=C/C=C3/N(CCCCS(=O)(=O)[O-])c4ccccc4C3(C)C)/CCC2)=[N+](CCCCS(=O)(=O)[O-])c2ccccc21.[K+]", "note": "[IR-dye 5]", "values": [{"measurement": "solubility", "setting": "[1]; 2-methoxyl-propanol (MOP) with tri-ethylamine, organic solvent or mixture, 2-methoxyl-propanol (MOP), tri-ethylamine was added to dissolve the dye, read-out: Solubility in MOP", "result": 91.3, "unit": "mg/mL"}, {"measurement": "solubility", "setting": "[1]; water/NaOH, pH 9, aqueous buffer, water/NaOH, pH = 9, read-out: Solubility in H2O/NaOH at pH = 9", "result": "> 50", "unit": "mg/mL"}, {"measurement": "Dissolution time", "setting": "[2]; listed as IR-5", "result": 25, "unit": "s"}]}
